Results reported in patent US6787519B2, “Methods of treating disorders related to apoE” (The Regents of the University of California, priority 2000, dated 2004).
Square brackets hold non-standard residues; d marks the D form. Peptide text beside a SMILES is read from it. * marks the point of attachment. Sta = CC(C)C[C@H](N)[C@@H](O)CC(=O)O; Isovaleryl = CC(C)CC(=O)*

Tests used:
[1] = system: Neuro2a cells expressing apoE3; assay: formation of apoE and p-tau immunoreactive intracellular inclusions after Aβ or ER stress inducers; type: cell-based, mouse; details: untreated 0%; p<0.001
Description: (§1) Cell cultures—Murine neuroblastoma (Neuro-2a) cells were obtained from American Type Culture Collection (Rockville, Md.). Neuro-2a cells were maintained at 37° C. in a humidified 5% CO2 incubator in MEM-containing 10% FBS, supplemented with non-essential amino acids, penicillin, and streptomycin.
(§2) Transient transfection of cells—Neuro-2a, NT2-N, or cultured mouse primary neurons were transiently transfected with various apoE cDNA constructs, as listed in Table I, by using lipofectamine method. Briefly, 2 μg of apoE DNA were pre-incubated with 7 μl of lipofectamine in 200 μl of serum-free MEM containing N2-supplements at room temperature for 30 minutes. After addition of 800 μl of serum-free MEM containing N2-supplements, the mixture was added into the cells that had been washed three times with serum-free MEM. Ten to forty-eight hours later, the transfected cells were used for different experiments.
(§3) Immunocytochemistry—Neuro-2a cells were grown in 2-well chamber slides for 24 hours and were then transiently transfected with different apoE3 or apoE4 DNA constructs, as described above. After washing twice in PBS, the transfected cells were fixed with 3% paraformaldehyde in PBS for 30 minutes at room temperature, washed twice in PBS, and then permeabilized with Triton-X100 for 5 minutes which was followed by three washes in PBS.
(§4) To block nonspecific reactions, all slides were incubated for 1 hour at room temperature with PBS containing 2% BSA and 10% normal serum (Vector) derived from the same species as the source of secondary antibody (sheep or rabbit), followed by a 1-hour incubation with the primary antibody (monospecific rabbit anti-human apoE, 1:500; monoclonal anti-p-tau, 1:100-1:1000, anti-p-NF—H, 1:100-1:500) in PBS containing 2% BSA.
(§5) Slides were then washed three times in PBS containing 2% BSA and incubated for 1 hour at room temperature with the secondary antibody (FITC-coupled anti-rabbit IgG to detect antigen-bond anti-human apoE, Rodamine- or Cy5-coupled anti-mouse IgG to detect antigen-bond anti-p-tau or anti-p-NF—H). After three washes in PBS containing 2% BSA, immunofluorescently labeled slides were mounted in VectaShield (Vector) and viewed with a MRC-1024 laser scanning confocal system (Bio-Rad) mounted on an Optiphot-2 microscope (Nikon, Tokyo, Japan).
(§6) Since Aβ deposition is a major pathological component within the brains of Alzheimer's disease patients, we determined the effect of Aβ treatment on the formation of apoE and p-tau immunoreactive intracellular inclusions in Neuro2a cells expressing apoE.
(§7) Since Aβ treatment of cells can cause ER stress (TN98), other ER stress inducers, including Brefeldin A (BfA) and tunicamycin (TN98), were used to determine whether ER stress can increase the formation of intracellular inclusions in apoE transfected Neuro2a cells. Incubation with either BfA or tunicamycin increased the inclusion-positive cells from 2.7±1.2% to 7.2±2.1% (p<0.001) in apoE4 expressing cells and from 0% to 3.2±1.1% (p<0.001) in apoE3 expressing cells.

[2] = system: Neuro2a cells expressing apoE4; assay: as above; type: cell-based, mouse; details: untreated 2.7±1.2%; p<0.001
Description: as §1, §2, §3, §4, §5, §6, §7

[3] = system: Neuro-2a cells expressing apoE3 or apoE4; assay: generation of carboxyl-terminal truncated apoE in cells incubated with Aβ1-42, immunoprecipitation and anti-apoE western blotting; type: cell-based, mouse; details: more so with apoE4
Description: Immunoprecipitation and western blotting—Neuro-2a cells were grown to 80% confluence in 6-well plates or 15-cm dishes and were then transiently transfected with different apoE DNA constructs, as described above. Twenty-four to forty-eight hours later, the cells were harvested and lysed in ice-cold lysis buffer for 30 minutes. After spinning to remove nuclei (13,000 rpm for 15 minutes), apoE in supernatant was immunoprecipitated with monospecific rabbit anti-human apoE antibody and protein-A agarose beads. The immunoprecipitates were washed twice with lysis buffer and three times with PBS. The presence of apoE, p-tau, or p-NF—H in the immunoprecipitates was analyzed by western blotting using the corresponding antibodies. Alternatively, the supernatants of cell lysates were immunoprecipited with monoclonal anti-p-tau or anti-p-NF—H antibodies and, then, the presence of apoE was analyzed by anti-apoE western blotting.
Since Aβ1-42 increased formation of intracellular inclusions in Neuro2a cells expressing apoE4, we next determined whether treatment of the transfected cells with Aβ will increase generation of the carboxyl-terminal truncated form of apoE. Neuro-2a cells expressing apoE3 or apoE4 were incubated with Aβ1-42, then, intracellular apoE was immunoprecipitated and detected by anti-apoE western blotting. […]

apoE cleavage enzyme [4] = assay: cleavage of apoE4 in the presence of known protease inhibitors, anti-apoE western blot; type: biochemical, mouse
Description: To test this hypothesis, purified human apoE3 or apoE4 were incubated with brain lysates of apoE knockout mice at 37° C. for 3 hours and the proteolysis of apoE was analyzed by anti-apoE western blot.
To determine the biochemical properties of the putative apoE cleavage enzyme, we tested the effects of different known inhibitors for four major categories of proteases, i.e., serine proteases, cysteine proteases, aspartate proteases, and metalloproteases.

Neuro-2a cells [5] = assay: incubation of cells with exogenous recombinant apoE4(Δ272-299) complexed with β-VLDL; type: cell-based, mouse; details: 30 hours incubation
Description: In human brains, apoE is synthesized and secreted primarily by astrocytes, although human neurons are capable of producing apoE. The secreted apoE can be internalized by neurons. To determine whether internalized apoE4(Δ272-299) can induce formation of NFT-like structures in neurons. Neuro-2a cells were incubated with recombinant apoE4(Δ272-299), which had been complexed with the lipid transport vehicle β-VLDL. After 30 hours incubation, neurite outgrowth and the formation of NFT-like structures in the cells were determined. […] These structures were identical to the tangle-like structures formed in Neuro-2a cells expressing GFP-apoE4(Δ272-299) in the cytosol. Therefore internalized apoE4(Δ272-299) can escape the endosomal-lysosomal pathway and interact with cytosolic p-tau and p-NF—H.

Neuro-2a cells [6] = assay: formation of intracellular inclusions / NFT-like structures in cells transfected with truncated apoE constructs; type: cell-based, mouse; details: constructs with deletion of 28 carboxyl-terminal amino acids
Description: as §1, §2
Immunocytochemistry—Neuro-2a cells were grown in 2-well chamber slides for 24 hours and were then transiently transfected with different apoE3 or apoE4 DNA constructs, as described above. […]
For the cells transiently transfected with GFP-apoE DNA constructs, after fixed in 3% paraformaldehyde and washed twice in PBS, the green fluorescence was viewed directly with a MRC-1024 laser scanning confocal system (Bio-Rad) as described above. […]

apoE cleavage enzyme [7] = assay: chromogenic assay with Ala-Ala-Pro-Phe-p-nitroanilide as substrate; type: biochemical, mouse; details: 1 mM Ala-Ala-Pro-Phe-p-nitroanilide substrate
Description: To monitor the cleavage activity, a chromogenic group (p-nitroanilide) was added to the carboxyl-side of the last amino acid at the C-terminus. If the enzyme cuts the bond between the last amino acid and p-nitroanilide, the released p-nitroanilide will yield a yellow color, which can be monitored by a spectrophotometer at about 390-410 nm.
Importantly, a proline at the P2 position and two hydrophobic amino acids (such as alanine, Ala) at the P3 and P4 positions are critical for determining the efficiency of the cleavage. Taken together, the putative apoE cleavage enzyme is a chymotrypsin-like serine protease, which recognizes the motif of Ala-Ala-Pro-Phe (SEQ ID NO:1), Ala-Ala-Pro-Met (SEQ ID NO:2), Ala-Ala-Pro-Leu (SEQ ID NO:3), or a similar sequence in the substrate peptides or proteins. By using Ala-Ala-Pro-Phe-p-nitroanilide as a substrate, the chromogenic assay can be used as a high-throughput method to screen drugs, agents, or chemical compounds that inhibit apoE cleavage activity. Para-nitroanilide is detected spectrophotometrically at about 390-410 nm.
By using the chromogenic assay, in which 1 mM Ala-Ala-Pro-Phe-p-nitroanilide was used as the substrate, we screened many peptides towards the inhibition of the apoE cleavage enzyme activity.

apoE cleavage enzyme [8] = assay: inhibition of apoE4 cleavage by partially purified apoE cleavage enzyme, anti-apoE western blot; type: biochemical, mouse; details: peptide 1 mM, 4 μg apoE4, 3 hours at 37° C.
Excerpt: The peptides Ala-Ala-Pro-Phe (SEQ ID NO:1) and Ala-Ala-Pro-Leu (SEQ ID NO:3) were further tested for the inhibition of apoE cleavage. […] Thus, both Ala-Ala-Pro-Phe (SEQ ID NO:1) and Ala-Ala-Pro-Leu (SEQ ID NO:3) can be used as peptide inhibitors for the apoE cleavage enzyme.

[9] = 6 mM peptide, 20 hour incubation

With `C[C@H]1CCC/C=C/[C@@H]2C[C@H](O)C[C@H]2[C@H](O)/C=C/C(=O)O1` [BfA, Brefeldin A] the “inclusion-positive apoE3 expressing cells after treatment” value [1] was 3.2±1.1% and the “inclusion-positive apoE4 expressing cells after treatment” value [2] was 7.2±2.1%.
With Aβ1-42: amyloid beta (Aβ) peptide 1-42 the “amounts of the carboxyl-terminal truncated forms of both apoE3 and apoE4” value [3] was “significantly increased”, the “inclusion-positive apoE3 expressing cells after treatment” value [1] was 2.8±0.6% and the “inclusion-positive apoE4 expressing cells after treatment” value [2] was 6.7±1.5%.
`CC(C)C[C@H](NC(=O)[C@H]1O[C@@H]1C(=O)O)C(=O)NCCCCN=C(N)N` [E-64] was tested, and the “inhibition of the cleavage of apoE4” value (apoE cleavage enzyme [4]) was “did not inhibit”.
In the case of “apoE4 (Δ272-299): apoE4 with deletion of 28 carboxyl-terminal amino acids”, the neurite outgrowth (Neuro-2a cells [5]) is reported as “did not show neurite outgrowth”, the “formation of NFT-like structures” value (Neuro-2a cells [5]; anti-apoE immunofluorescent staining) is reported as “NFT-like structures were formed” and the “transfected cells displaying the intracellular filamentous inclusions” value (Neuro-2a cells [6]) is reported as 78±8%.
In the case of “Ala-Ala-Pro-Phe (AAPF; OTHER INFORMATION: synthetic peptide)”, the “inhibition of apoE cleavage enzyme activity” value (apoE cleavage enzyme [7]; [9]) is reported as 67% and the “inhibition of apoE cleavage” value (apoE cleavage enzyme [8]) is reported as “significant inhibition”.
For `CC(C)CC(=O)N[C@H](C(=O)N[C@H](C(=O)N[C@@H](CC(C)C)[C@@H](O)CC(=O)N[C@@H](C)C(=O)N[C@@H](CC(C)C)[C@@H](O)CC(=O)O)C(C)C)C(C)C` [pepstain] (Isovaleryl-VV[Sta]A[Sta]-OH), the “inhibition of the cleavage of apoE4” value (apoE cleavage enzyme [4]) was “did not inhibit”.
“Ala-Ala-Pro-Leu (AAPL; OTHER INFORMATION: synthetic peptide)” was tested, and the “inhibition of apoE cleavage enzyme activity” value (apoE cleavage enzyme [7]; [9]) was 56% and the “inhibition of apoE cleavage” value (apoE cleavage enzyme [8]) was “significant inhibition”.
With tunicamycin the “inclusion-positive apoE3 expressing cells after treatment” value [1] was 3.2±1.1% and the “inclusion-positive apoE4 expressing cells after treatment” value [2] was 7.2±2.1%.
In the case of `O=C(O)CN(CCOCCOCCN(CC(=O)O)CC(=O)O)CC(=O)O` [EGTA], the “inhibition of the cleavage of apoE4” value (apoE cleavage enzyme [4]) is reported as “did not inhibit”.
“apoE4: human apolipoprotein E isoform apoE4, full-length” was tested, and the “inhibition of apoE cleavage enzyme activity” value (apoE cleavage enzyme [7]; 7 μM apoE4) was 89%.
With `O=S(=O)(F)Cc1ccccc1` [PMSF] the “inhibition of the cleavage of apoE4” value (apoE cleavage enzyme [4]) was “totally abolished”.
